{"source": "patent US20100292257A1", "about": "“USES OF 2-[PIPERIDINYL] METHYL-2, 3-DIHYDROIMIDAZO [1,2-C] QUINAZOLIN-5 (6H)-ONE FOR PROVIDING AN ANALGESIC EFFECT, ANTI-ALLERGIC EFFECT AND HISTAMINE H1 RECEPTOR ANTAGONISM EFFECT” (Medical and Pharmaceutical Industry Technology and …, priority 2007, published 2010)", "key": {"[1]": {"tested_on": "CD-1 (Crl.) derived male mice", "assay": "Acetic acid-induced writhing assay", "type": "in vivo", "settings": "1 h before acetic acid 0.5%, 20 ml/kg i.p., writhes 5th-10th min, vehicle 12.4 ± 1.5", "method": "Vehicle (2% Tween 80, 10 ml/kg), PDC-130 or aspirin (100 mg/kg) was administered orally to groups of eight CD-1 (Crl.) derived male mice, weighing 24±2 g, 1 hour before intraperitoneal injection of acetic acid (0.5%, 20 ml/kg). The number of writhes of animals was observed and recorded during a period of time from the 5th to the 10th minutes period after acetic acid administration. [Reference: Inoue. K., Motonaga, A. and Nishimura, T. Mechanism of antiinflammatory action of etodolac. Arzneim-Forsch./Drug Res. 41: 235-239, 1991.]"}, "[2]": {"tested_on": "CD-1 (Crl.) derived male mice", "assay": "Phenylquinone (PQ)-induced writhing assay", "type": "in vivo", "settings": "1 h before phenylquinone 2 mg/kg i.p., writhes 5th-10th min, vehicle 15.1 ± 1.4", "method": "Vehicle (2% Tween 80, 10 ml/kg), PDC-130 or aspirin was orally administered to a group of eight CD-1 (Crl.) derived male mice weighing 24±2 g. One hour later, phenylquinone (2 mg/kg) was given by intraperitoneal injection. […] of animals was observed and recorded during a period of time from the 5th to 10th minutes after PQ administration, [Reference: Siegmund, E, Cadmus, R. and Lu, G. A method for evaluating both non-narcotic and narcotic analgesics. Proc. Soc. Exp. Biol. Med. 952: 729-731, 1957.]"}, "Wistar derived male rats": {"tested_on": "Wistar derived male rats", "assay": "Passive cutaneous anaphylaxis", "type": "in vivo", "settings": "for Total Score: wheal diameter score, group of five rats, vehicle 50", "method": "A group of five Wistar derived male rats weighing 80±20 g was passively sensitized 16 hours earlier by intradermal injection of reaginic antiovalbumin serum (0.5 ml) on two spots of the dorsal surface. […] Within one hour after administration of the above substances, the animals were challenged intravenously with a mixture of ovalbumin (1 mg) and Evans Blue dye (5 mg) and sacrificed 30 minutes later. The two wheal diameters were measured for each animal and scored as follows: • Score 0: diameter<0.05 cm • Score 1: diameter 0.05-0.20 cm • Score 2: diameter 0.2-0.4 cm • Score 3: diameter 0.4-0.6 cm • Score 4: diameter 0.6-0.8 cm • Score 5: diameter>0.8 cm\nMaximum possible score for each animal total 5×2=10. [Reference: Goose, J. and Blair, A. M. J. N. Passive cutaneous anaphylaxis in the rat, induced with two homologous reagin-like antibodies and its specific inhibition with disodium chromoglycate. Immunology 16: 749-760, 1969.]\n(Total score of vehicle group−Total score of tested group)/(Total score of vehicle group)×100%"}, "Histamine H1 Receptor": {"target": "T1, Histamine H1 Receptor (Rattus norvegicus, UniProt P31390)", "T1 construct": "immediately challenged with two intradermal injection of histamine; from tissue; host or cells: living Wistar derived male rats (skin, intradermal histamine challenge)", "T1 sequence (P31390 whole entry)": "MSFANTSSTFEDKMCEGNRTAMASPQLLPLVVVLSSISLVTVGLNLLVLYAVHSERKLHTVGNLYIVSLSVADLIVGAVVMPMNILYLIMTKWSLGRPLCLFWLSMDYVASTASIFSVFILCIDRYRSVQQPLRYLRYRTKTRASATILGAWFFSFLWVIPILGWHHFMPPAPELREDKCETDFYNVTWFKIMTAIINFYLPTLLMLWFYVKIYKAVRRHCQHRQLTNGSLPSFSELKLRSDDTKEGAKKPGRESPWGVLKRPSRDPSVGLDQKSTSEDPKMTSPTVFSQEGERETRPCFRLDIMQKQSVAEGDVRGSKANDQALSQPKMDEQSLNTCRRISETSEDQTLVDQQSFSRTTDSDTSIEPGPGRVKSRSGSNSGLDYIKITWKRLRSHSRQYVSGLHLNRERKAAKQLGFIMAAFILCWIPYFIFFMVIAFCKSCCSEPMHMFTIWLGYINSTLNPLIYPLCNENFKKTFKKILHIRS", "assay": "Histamine H1 antagonism (histamine-induced wheal)", "type": "in vivo, rats", "settings": "for Total Score: 1 h before intradermal histamine, wheal diameter score, group of five rats, vehicle 50; for Inhibition (%): inhibition of histamine-induced blue colored wheal vs vehicle", "method": "After one hour, animals were injected with Evans Blue dye (5 mg/0.5 ml/rat) intravenously and immediately challenged with two intradermal injection of histamine (each 30 μg/0.05 ml). The animals were sacrificed 30 minutes later. The two wheal diameters were then measured for each animal and scored as follows: • Score 0: diameter<0.05 cm • Score 1: diameter 0.05-0.20 cm • Score 2: diameter 0.2-0.4 cm • Score 3: diameter 0.4-0.6 cm • Score 4: diameter 0.6-0.8 cm • Score 5: diameter>0.8 cm\nMaximum possible score for each animal total 5×2=10."}}}
{"smiles": "CC(=O)Oc1ccccc1C(=O)O", "note": "[Aspirin, aspirin, reference compound]", "values": [{"measurement": "Number of Writhing", "setting": "[1]; 100 mg/kg orally", "result": "2.4 ± 1.0"}, {"measurement": "Number of Writhing", "setting": "[2]; 100 mg/kg orally", "result": "5.5 ± 1.5"}]}
{"smiles": "CN1CCC(=C2c3ccccc3C=Cc3ccccc32)CC1", "note": "[Cyproheptadine, cyproheptadine, reference compound]", "values": [{"measurement": "Total Score", "setting": "Wistar derived male rats; 1 mg/kg orally", "result": 14}, {"measurement": "inhibition at 1 mg/kg", "setting": "Wistar derived male rats; Rattus norvegicus, po, 1 mg/kg orally, inhibition of passive cutaneous anaphylaxis blue colored wheal vs vehicle", "result": 72, "unit": "%"}]}
{"smiles": "O=C(c1ccc(F)cc1)C1CCN(CC2CN3C(=O)Nc4ccccc4C3=N2)CC1", "note": "(stereo not drawn) [PDC-130, 2-[1-(4-p-fluorobenzoyl)piperidinyl]methyl-2,3-dihydroimidazo[1,2-c]-quinazolin-5(6H)-one]", "values": [{"measurement": "Total Score", "setting": "Histamine H1 Receptor; 3 mg/kg orally", "result": 20}, {"measurement": "Inhibition (%)", "setting": "Histamine H1 Receptor; 3 mg/kg orally", "result": 60, "unit": "%"}, {"measurement": "Total Score", "setting": "Histamine H1 Receptor; 10 mg/kg orally", "result": 14}, {"measurement": "Inhibition (%)", "setting": "Histamine H1 Receptor; 10 mg/kg orally", "result": 72, "unit": "%"}, {"measurement": "Total Score", "setting": "Histamine H1 Receptor; 30 mg/kg orally", "result": 10}, {"measurement": "Inhibition (%)", "setting": "Histamine H1 Receptor; 30 mg/kg orally", "result": 80, "unit": "%"}, {"measurement": "Number of Writhing", "setting": "[1]; 0.03 mg/kg orally", "result": "12.1 ± 1.6"}, {"measurement": "Number of Writhing", "setting": "[1]; 0.1 mg/kg orally", "result": "5.0 ± 1.0"}, {"measurement": "Number of Writhing", "setting": "[1]; 0.3 mg/kg orally", "result": "5.3 ± 1.1"}, {"measurement": "Number of Writhing", "setting": "[1]; 1 mg/kg orally", "result": "2.1 ± 1.1"}, {"measurement": "Inhibition (%)", "setting": "Wistar derived male rats; 3 mg/kg orally, inhibition of passive cutaneous anaphylaxis blue colored wheal vs vehicle", "result": 68, "unit": "%"}, {"measurement": "Total Score", "setting": "Wistar derived male rats; 3 mg/kg orally", "result": 16}, {"measurement": "Inhibition (%)", "setting": "Wistar derived male rats; 10 mg/kg orally, inhibition of passive cutaneous anaphylaxis blue colored wheal vs vehicle", "result": 80, "unit": "%"}, {"measurement": "Total Score", "setting": "Wistar derived male rats; 10 mg/kg orally", "result": 10}, {"measurement": "Inhibition (%)", "setting": "Wistar derived male rats; 30 mg/kg orally, inhibition of passive cutaneous anaphylaxis blue colored wheal vs vehicle", "result": 80, "unit": "%"}, {"measurement": "Total Score", "setting": "Wistar derived male rats; 30 mg/kg orally", "result": 10}, {"measurement": "Number of Writhing", "setting": "[2]; 0.03 mg/kg orally", "result": "12.1 ± 1.6"}, {"measurement": "Number of Writhing", "setting": "[2]; 0.1 mg/kg orally", "result": "6.4 ± 1.6"}, {"measurement": "Number of Writhing", "setting": "[2]; 0.3 mg/kg orally", "result": "5.3 ± 1.7"}, {"measurement": "Number of Writhing", "setting": "[2]; 1 mg/kg orally", "result": "2.8 ± 1.2"}]}
